Measurements as given in patent US20120070411A1, “SUBSTITUTED NUCLEOTIDE ANALOGS” (Alios BioPharma, Inc., priority 2010, published 2012).
Read-outs that look alike come from different tables or passages of the source.

Test system: Huh-7 cells containing the self-replicating, subgenomic HCV replicon
Test: HCV replicon assay (luciferase reporter, 72 h)
Type: cell-based
Conditions: Hepatitis C virus, read-out: HCV Replicon Activity (EC50)
Method: Huh-7 cells containing the self-replicating, subgenomic HCV replicon with a stable luciferase (LUC) reporter were cultured in Dulbecco's modified Eagle's medium (DMEM) containing 2 mM L-glutamine and supplemented with 10% heat-inactivated fetal bovine serum (FBS), 1% penicillin-streptomyocin, 1% nonessential amino acids, and 0.5 mg/ml G418.
On the first day, 5,000 HCV replicon cells were plated per well in a 96-well plate. On the following day, test compounds were solubilized in 100% DMSO to 100× the desired final testing concentration. Each compound was then serially diluted (1:3) up to 9 different concentrations. Compounds in 100% DMSO are reduced to 10% DMSO by diluting 1:10 in cell culture media. The compounds were diluted to 10% DMSO with cell culture media, which were used to dose the HCV replicon cells in 96-well format. The final DMSO concentration was 1%. The HCV replicon cells were incubated at 37° C. for 72 hours. At 72 hours, cells were processed when the cells are still subconfluent. Compounds that reduce the LUC signal are determined by Bright-Glo Luciferase Assay (Promega, Madison, Wis.). % Inhibition was determined for each compound concentration in relation to the control cells (untreated HCV replicon) to calculate the EC50.

[1] = Table 9, Huh-7 HCV replicon cells, luciferase, 72 hours

| Structure (SMILES) | EC50 (Huh-7, 72 h) [µM] | EC50 [1] [µM] |
| --- | --- | --- |
| CC(C)C[C@H](NP(=O)(Oc1ccccc1)O[C@@H](C)[C@H]1O[C@@H](n2cnc3c(N)ncnc32)[C@H](O)[C@@H]1O)C(=O)OC1CCCCC1 (stereo partly shown) [A40] | < 1 |  |
| CC(OC(=O)c1ccccc1)[C@H]1O[C@@H](n2ccc(=O)[nH]c2=O)[C@](C)(OC(=O)c2ccccc2)[C@@H]1OC(=O)c1ccccc1 (stereo partly shown) |  | 5 to 30 |
| COC(=O)[C@H](C)NP(=O)(Oc1ccccc1)OC(C)[C@H]1O[C@@H](n2ccc(N)nc2=O)[C@@H](F)[C@@H]1O (mixture of isomers) [C9, 2′-deoxy-2′-C-β-fluoro-5′(R/S)—C-methylcytidine-5′-[phenyl-(methoxy-L-alaninyl)]phosphate] | < 100 |  |
| CC(=O)Nc1ccn([C@@H]2O[C@H]([C@H](C)OC(C)=O)[C@@H](OC(C)=O)C2(F)F)c(=O)n1 |  | < 5 |
| COC(=O)[C@H](C)N[P@@](=O)(Oc1ccccc1)O[C@@H](C)[C@H]1O[C@@H](n2cnc3c(N)ncnc32)[C@H](O)[C@@H]1O | < 5 |  |
| COC(=O)Nc1ncnc2c1ncn2[C@@H]1O[C@H]([C@H](C)OP(=O)(N[C@@H](C)C(=O)OCC(C)(C)C)Oc2cccc3ccccc23)[C@H]2OC(=O)O[C@H]21 (stereo partly drawn) [A7, 2′,3′-O-carbonyl-N6-methoxycarbonyl-5′(S)—C-methyladenosine 5′-[1-naphthyl(neopentoxy-L-alaninyl)]phosphate] | < 30 |  |
| CCC(=O)O[C@@H](C)[C@H]1O[C@@H](n2ccc(N)nc2=O)C(F)(F)[C@@H]1O |  | < 5 |
| CCC(=O)O[C@@H](C)[C@H]1O[C@@H](n2ccc(N)nc2=O)C(F)(F)[C@@H]1OC(=O)CC |  | < 5 |
| COC(=O)[C@H](C)NP(=O)(Oc1ccccc1)O[C@H](C)[C@H]1O[C@@H](n2cnc3c(N)ncnc32)[C@H](O)[C@@H]1O (stereo partly shown) | < 30 |  |
| CC(=O)O[C@@H](C)[C@H]1O[C@@H](n2ccc(N)nc2=O)C(F)(F)[C@@H]1O |  | < 5 |
| C[C@H](NP(=O)(Oc1cccc2ccccc12)O[C@@H](C)[C@H]1O[C@@H](n2cnc3c(N)ncnc32)[C@H](O)[C@@H]1O)C(=O)OCc1ccccc1 (stereo partly drawn) [A21, 5′(S)—C-methyladenosine 5′-[1-naphthyl(benzyloxy-L-alaninyl)]phosphate] | < 1 |  |
| CC(C)OC(=O)[C@H](C)NP(=O)(Oc1ccccc1)O[C@@H](C)[C@H]1O[C@@H](n2cnc3c(N)nc(N)nc32)[C@H](O)[C@@H]1O (stereo partly drawn) [E1, 1-(2,6-diaminopurin-9-yl)-5(S)—C-methyl-β-D-ribofuranose 5-[phenyl(isopropoxy-L-alaninyl)]phosphate] | < 30 |  |
| C[C@H](NP(=O)(Oc1cccc2ccccc12)O[C@@H](C)[C@H]1O[C@@H](n2cnc3c(N)ncnc32)[C@@H]2OC(=O)O[C@@H]21)C(=O)OC1CCCCC1 (stereo partly drawn) [A3, 2′,3′-O-carbonyl-5′(S)—C-methyladenosine 5′-[1-naphthyl(cyclohexoxy-L-alaninyl)]phosphate] | < 1 |  |
| COC(=O)[C@@H](C)NP(=O)(Oc1ccccc1)O[C@@H](C)[C@H]1O[C@@H](n2cnc3c(N)ncnc32)[C@](C)(O)[C@@H]1O (stereo partly shown) [drawing 355] | 30 to 200 |  |
| C[C@H](NP(=O)(Oc1ccc(Cl)cc1)O[C@@H](C)[C@H]1O[C@@H](n2cnc3c(N)ncnc32)[C@H](O)[C@@H]1O)C(=O)OC1CCCCC1 (stereo partly shown) [A32] | < 1 |  |
| C[C@H](NP(=O)(Oc1ccccc1)O[C@@H](C)[C@H]1O[C@@H](n2cnc3c(N)ncnc32)[C@@H]2OC(=O)O[C@@H]21)C(=O)OCC(C)(C)C (stereo partly drawn) [A12, 2′,3′-O-carbonyl-5′(S)—C-methyladenosine 5′-[phenyl(neopentoxy-L-alaninyl)]phosphate] | < 1 |  |

| Structure (SMILES) | EC50 (Huh-7, 72 h) [µM] | EC50 [1] [µM] |
| --- | --- | --- |
| C[C@H](N[P@@](=O)(Oc1ccccc1)O[C@@H](C)[C@H]1O[C@@H](n2cnc3c(N)ncnc32)[C@H](O)[C@@H]1O)C(=O)OC1CCCCC1 [A10a, 5′(S)—C-methyladenosine 5′(S)-[phenyl(cyclohexoxy-L-alaninyl)]phosphate] | < 1 |  |
| C[C@H](NP(=O)(Oc1cccc2ccccc12)O[C@@H](C)[C@H]1O[C@@H](n2cnc3c(N)ncnc32)[C@H](O)[C@@H]1O)C(=O)OCC(C)(C)C (stereo partly drawn) [A2, 5′(S)—C-methyladenosine 5′-[1-naphthyl(neopentoxy-L-alaninyl)]phosphate] | < 1 |  |
| CCC(=O)O[C@H]1[C@@H](OC(=O)CC)[C@H](n2cnc3c(N)ncnc32)O[C@@H]1[C@H](C)OP(=O)(N[C@@H](C)C(=O)OC(C)C)Oc1ccccc1 (stereo partly drawn) [A14, 2′,3′-O-dipropionyl-5′(S)—C-methyladenosine 5′-[phenyl(isopropoxy-L-alaninyl)]phosphate] | < 1 |  |
| CC(O)[C@H]1O[C@@H](n2cnc3c(=O)[nH]c(N)nc32)[C@H](O)[C@@H]1O (stereo partly shown) |  | 30 to 200 |
| CC(C)[C@H](NP(=O)(Oc1ccccc1)O[C@@H](C)[C@H]1O[C@@H](n2cnc3c(N)ncnc32)[C@H](O)[C@@H]1O)C(=O)OC1CCCCC1 (stereo partly shown) [A39] | < 1 |  |
| CC(C)OC(=O)[C@H](C)NP(=O)(Oc1cccc2ccccc12)OC(C)[C@H]1O[C@@H](n2ccc(N)nc2=O)[C@@H](C)[C@@H]1O (mixture of isomers) [C10, 2′-deoxy-2′-C-β-methyl-5′(R/S)—C-methylcytidine 5′-[1-naphthyl (isopropoxy-L-alaninyl)]phosphate] | < 30 |  |
| CCC(=O)O[C@H]1[C@@H](OC(=O)CC)[C@H](n2cnc3c(N)ncnc32)O[C@@H]1[C@H](C)OP(=O)(N[C@@H](C)C(=O)OCC(C)(C)C)Oc1ccccc1 (stereo partly drawn) [A17, 2′,3′-O-dipropionyl-5′(S)—C-methyladenosine 5′-[phenyl(neopentoxy-L-alaninyl)]phosphate] | < 1 |  |
| C[C@H](O)[C@H]1O[C@@H](n2ccc(N)nc2=O)C(F)(F)[C@@H]1O |  | < 5 |
| C[C@H](NP(=O)(Oc1cccnc1)O[C@@H](C)[C@H]1O[C@@H](n2cnc3c(N)ncnc32)[C@H](O)[C@@H]1O)C(=O)OC1CCCCC1 (stereo partly shown) [A36] | < 30 |  |
| C[C@H](OP(=O)(NCC(=O)OC1CCCCC1)Oc1ccccc1)[C@H]1O[C@@H](n2cnc3c(N)ncnc32)[C@H](O)[C@@H]1O (stereo partly shown) [A43] | < 1 |  |
| COC(=O)Nc1ncnc2c1ncn2[C@@H]1O[C@H]([C@H](C)OP(=O)(N[C@@H](C)C(=O)OC2CCCCC2)Oc2cccc3ccccc23)[C@H]2OC(=O)O[C@H]21 (stereo partly drawn) [A5, 2′,3′-O-carbonyl-N6-methoxycarbonyl-5′(S)—C-methyladenosine 5′-[1-naphthyl(cyclohexoxy-L-alaninyl)]phosphate] | < 30 |  |
| COC(=O)[C@H](C)NP(=O)(Oc1ccccc1)O[C@@H](C)[C@H]1O[C@@H](n2cnc3c(N)ncnc32)[C@@H]2OC(=O)O[C@@H]21 (stereo partly drawn) [A16, 2′,3′-O-carbonyl-5′(S)—C-methyladenosine 5′-[phenyl(methoxy-L-alaninyl)]phosphate] | < 30 |  |
| CCOC(=O)[C@H](C)NP(=O)(Oc1ccccc1)O[C@@H](C)[C@H]1O[C@@H](n2cnc3c(N)ncnc32)[C@H](O)[C@@H]1O (stereo partly shown) | < 30 |  |
| CC(C)OC(=O)[C@H](C)NP(=O)(Oc1cccc2ccccc12)O[C@@H](C)[C@H]1O[C@@H](n2ccc(N)nc2=O)[C@H](O)[C@@H]1O (stereo partly drawn) [C2, 5′(S)—C-methylcytidine-[naphthyl(isopropoxy-L-alaninyl)]phosphate] | < 100 |  |
| COC(=O)[C@H](C)NP(=O)(Oc1ccccc1)O[C@@H](C)[C@H]1O[C@@H](n2ccc(N)nc2=O)C(F)(F)[C@@H]1O (mixture of isomers) [C5, 2′-Deoxy-2′,2′-difluoro-5′(S)—C-methylcytidine 5′-[phenyl(methoxy-L-alaninyl)]phosphate] | < 1 |  |
